Measurements reported in patent US4372975A, “Substituted 2-benzoyl-4-chloroglycinanilide derivatives, a process for their production, and their use as medicaments” (Pierre Fabre SA, priority 1977, dated 1983).
Where a name gives a salt, the structure may show the parent alone. Read-outs that look alike come from different tables or passages of the source.

Assays:
male Swiss mice = experiment: Rota-Rod test; assay type: in vivo; details: falls off rod in less than 2 minutes
Procedure: This test is carried out on male Swiss mice. The mouse is placed on a 3 cm diameter wooden rod rotating at 5 revolutions per minute. The mice which succeed in remaining on the rod for at least 3 minutes in successive tests are selected and gathered into groups of 10 for the test of each dose. If the mouse falls off the rod in less than 2 minutes, the tested compound is considered to be effective. The results are expressed by the effective dose DE50 according to N. W. Dunham and T. S. Miva--J. amer. pharm. Ass., 1957, 46, 208.

[1] = tested on: pentamethylene tetrazole-induced tonic spasms; experiment: Anti-pentamethylene tetrazole activity; assay type: in vivo, male mice of the Swiss strain; details: Mus musculus, male Swiss mice
Procedure: This test is carried out on a group of 10 male mice of the Swiss strain. 15 minutes after the subcutaneous injection of 125 mg/kg of pentamethylene tetrazole, the mice have tonic spasms of which the outcome is fatal.
For the test, the compound is administered orally 60 minutes before the injection of pentamethylene tetrazole. The animals are observed for 2 hours after administration of the pentamethylene tetrazole. In some particular cases, the tests were confirmed by intraperitoneal administration. The results are expressed by the effective dose DE50 (Goodman et Col.--J. Pharmacol. 108, 1953).
As Japanese Pat. No. 148,340 has been cited in copending application Ser. No. 916,651, filed June 19, 1978, comparisons between compounds of this closest prior art and the compounds of the invention were undertaken in the form of a controlled study.
The major consideration surrounded the similarity in the compounds, particularly in the substitution at the R position. The study compared ten compounds of the invention, which differed from the Japanese prior art only in that the compounds of the invention are alkylated at the R position while the prior art compounds are all hydrogenated at that position.
The compounds were tested for anti-pentamethylene tetrazole activity, the test described on p.

[2] = Toxicity test (LD50, Miller and Tainter); details: mouse, in vivo, mice
Procedure: The compounds according to the invention were subjected to toxicity tests. It was tested in batches of 10 mice by oral, intraperitoneal and, in some cases, intravenous administration and was calculated in accordance with Miller and Tainter's method (Proc. Soc. exper. Biol. Med., 1944, 57, 261).

Solubility = assay type: physicochemical; details: for solubility in ethanol: in ethanol at 95° GL
[3] = ip, intraperitoneal, 125 mg/kg s.c. pentamethylene tetrazole, read-out: anti-pentamethylene tetrazole activity DE50 I.P.
[4] = oral, 60 min before 125 mg/kg s.c. pentamethylene tetrazole, read-out: anti-pentamethylene tetrazole activity DE50 P.O.
[5] = ip, intraperitoneal, read-out: DL50 I.P.
[6] = intravenous, read-out: DL50 I.V.

| Structure (SMILES) | Rota Rod DE50 V.O. (male Swiss mice) | ED50 [1, 3] [mg/kg] | ED50 [1, 4] [mg/kg] | LD50 [2, 5] [mg/kg] | LD50 [2, 6] [mg/kg] | LD50 ([2]; oral, read-out: DL50 oral) [mg/kg] | solubility in dimethyl formamide (Solubility) [%] | solubility in ethanol (Solubility) [%] | solubility in water (in words) (Solubility; in water) | solubility (Solubility; in water) [mg/mL] |
| --- | --- | --- | --- | --- | --- | --- | --- | --- | --- | --- |
| CN(CCO)CC(=O)N(C)c1ccc(Cl)cc1C(=O)c1ccccc1 [Example 14, N,N'-dimethyl-N'-(2'-hydroxyethyl)-(2-benzoyl-4-chloro)-glycinanilide] | 66 | 1.5 | 1.7 | 350 | 55 | 1200 | 20 | 20 | insoluble |  |
| CN(C(=O)CNC1CCCCC1)c1ccc(Cl)cc1C(=O)c1ccccc1 [Example 11, N-Methyl-N'-cyclohexyl-(2-benzoyl-4-chloro)-glycinanilide hydrochloride] | 27 | 1.25 | 1.35 | 305 | 50 | 1050 | 1 | 3 | insoluble |  |
| C=C(C)CNCC(=O)N(C)c1ccc(Cl)cc1C(=O)c1ccccc1 [Example 19, N-Methyl-N'-(2'-methylallyl)-(2-benzoyl-4-chloro)-glycinanilide hydrochloride] | 21 | 1.1 | 1.7 | 500 | 60 | 1500 |  |  |  | 50 |
